ChEMBL document CHEMBL3991601, “The target landscape of clinical kinase drugs” (Science, 2017)
The source made the active and inactive calls.

Experiments:
[1] = molecular target: T1, Peroxisomal acyl-coenzyme A oxidase 3 (Homo sapiens, UniProt O15254)
T1 sequence (O15254 whole entry): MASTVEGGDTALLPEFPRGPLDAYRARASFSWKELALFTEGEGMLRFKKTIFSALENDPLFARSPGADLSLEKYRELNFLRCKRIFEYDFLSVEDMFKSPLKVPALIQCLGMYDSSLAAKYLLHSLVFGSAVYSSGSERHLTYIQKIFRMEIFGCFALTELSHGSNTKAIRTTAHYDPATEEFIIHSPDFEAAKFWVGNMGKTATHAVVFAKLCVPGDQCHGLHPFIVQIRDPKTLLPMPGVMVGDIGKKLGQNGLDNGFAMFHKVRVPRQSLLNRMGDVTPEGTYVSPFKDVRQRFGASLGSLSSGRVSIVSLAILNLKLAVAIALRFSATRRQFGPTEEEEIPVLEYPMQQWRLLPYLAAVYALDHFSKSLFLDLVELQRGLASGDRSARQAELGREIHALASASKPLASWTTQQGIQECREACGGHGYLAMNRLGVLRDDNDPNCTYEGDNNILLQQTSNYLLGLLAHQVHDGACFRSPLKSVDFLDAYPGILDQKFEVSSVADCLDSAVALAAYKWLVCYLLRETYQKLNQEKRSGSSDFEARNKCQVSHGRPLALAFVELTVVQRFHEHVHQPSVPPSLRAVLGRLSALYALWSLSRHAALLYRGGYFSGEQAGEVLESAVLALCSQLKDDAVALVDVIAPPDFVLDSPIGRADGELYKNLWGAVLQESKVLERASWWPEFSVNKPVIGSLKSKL

[2] = molecular target: RAC-gamma serine/threonine-protein kinase (Homo sapiens, UniProt Q9Y243)
Chain of RAC-gamma serine/threonine-protein kinase (Q9Y243 whole entry, the tested form may be a part): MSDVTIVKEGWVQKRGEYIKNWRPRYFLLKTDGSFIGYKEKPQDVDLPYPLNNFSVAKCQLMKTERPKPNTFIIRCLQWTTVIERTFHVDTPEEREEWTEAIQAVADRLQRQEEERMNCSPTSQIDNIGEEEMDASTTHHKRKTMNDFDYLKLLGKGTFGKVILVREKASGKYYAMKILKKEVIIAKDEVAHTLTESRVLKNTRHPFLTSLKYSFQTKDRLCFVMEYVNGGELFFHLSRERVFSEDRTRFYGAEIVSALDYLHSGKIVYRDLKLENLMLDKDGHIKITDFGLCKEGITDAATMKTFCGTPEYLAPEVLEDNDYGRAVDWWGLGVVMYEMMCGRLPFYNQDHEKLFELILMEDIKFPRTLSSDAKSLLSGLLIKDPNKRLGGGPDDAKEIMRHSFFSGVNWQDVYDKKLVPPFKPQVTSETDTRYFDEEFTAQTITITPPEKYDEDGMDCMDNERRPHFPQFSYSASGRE

LIM domain kinase 2 = LIM domain kinase 2 (Homo sapiens, UniProt P53671)
Chain of LIM domain kinase 2 (P53671 whole entry, the tested form may be a part): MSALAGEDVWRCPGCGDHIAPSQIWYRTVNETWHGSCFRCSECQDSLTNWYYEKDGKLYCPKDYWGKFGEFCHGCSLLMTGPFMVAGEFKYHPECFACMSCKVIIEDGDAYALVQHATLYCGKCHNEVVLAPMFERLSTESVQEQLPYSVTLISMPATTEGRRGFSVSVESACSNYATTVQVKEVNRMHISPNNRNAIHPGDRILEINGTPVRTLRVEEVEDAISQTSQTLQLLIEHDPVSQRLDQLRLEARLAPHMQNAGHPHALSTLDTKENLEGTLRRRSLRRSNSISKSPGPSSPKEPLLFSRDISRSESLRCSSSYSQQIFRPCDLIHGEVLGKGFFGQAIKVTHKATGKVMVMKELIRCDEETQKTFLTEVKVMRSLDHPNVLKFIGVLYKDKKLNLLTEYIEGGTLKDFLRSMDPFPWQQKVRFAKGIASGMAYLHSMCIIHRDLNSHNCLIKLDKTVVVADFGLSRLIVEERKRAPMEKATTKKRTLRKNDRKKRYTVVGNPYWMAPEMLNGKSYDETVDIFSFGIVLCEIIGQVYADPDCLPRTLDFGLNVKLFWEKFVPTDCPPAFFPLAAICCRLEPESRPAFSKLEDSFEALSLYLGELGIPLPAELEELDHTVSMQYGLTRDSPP

[3] = molecular target: Mitogen-activated protein kinase 8 (Homo sapiens, UniProt P45983)
Chain of Mitogen-activated protein kinase 8 (P45983 whole entry, canonical isoform): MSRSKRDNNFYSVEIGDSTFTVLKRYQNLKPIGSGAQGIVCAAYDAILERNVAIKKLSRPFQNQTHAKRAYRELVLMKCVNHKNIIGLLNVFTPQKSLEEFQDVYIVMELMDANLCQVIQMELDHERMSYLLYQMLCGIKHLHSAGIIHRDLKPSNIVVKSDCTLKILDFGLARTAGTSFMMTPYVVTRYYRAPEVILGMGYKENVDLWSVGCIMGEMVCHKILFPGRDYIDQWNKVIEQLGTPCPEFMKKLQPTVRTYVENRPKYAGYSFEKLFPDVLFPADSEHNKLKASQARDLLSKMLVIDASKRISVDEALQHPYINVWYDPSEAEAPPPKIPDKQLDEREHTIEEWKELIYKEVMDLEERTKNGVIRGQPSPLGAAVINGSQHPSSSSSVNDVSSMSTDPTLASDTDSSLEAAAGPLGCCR

[4] = molecular target: S-adenosylmethionine synthase isoform type-2 (Homo sapiens, UniProt P31153)
Chain of S-adenosylmethionine synthase isoform type-2 (P31153 whole entry, canonical isoform): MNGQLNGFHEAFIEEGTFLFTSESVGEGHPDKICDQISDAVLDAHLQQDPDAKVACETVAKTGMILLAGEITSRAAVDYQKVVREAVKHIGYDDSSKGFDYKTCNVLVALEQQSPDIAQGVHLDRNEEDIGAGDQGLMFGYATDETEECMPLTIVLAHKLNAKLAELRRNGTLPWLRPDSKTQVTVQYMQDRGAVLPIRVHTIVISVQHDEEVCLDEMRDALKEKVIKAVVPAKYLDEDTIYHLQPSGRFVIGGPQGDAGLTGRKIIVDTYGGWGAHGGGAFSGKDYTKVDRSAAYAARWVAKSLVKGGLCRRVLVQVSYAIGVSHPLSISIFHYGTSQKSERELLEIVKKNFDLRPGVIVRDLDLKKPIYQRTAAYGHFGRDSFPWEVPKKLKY

Pyridoxal kinase = molecular target: T2, Pyridoxal kinase (Homo sapiens, UniProt O00764)
T2 sequence (O00764 whole entry): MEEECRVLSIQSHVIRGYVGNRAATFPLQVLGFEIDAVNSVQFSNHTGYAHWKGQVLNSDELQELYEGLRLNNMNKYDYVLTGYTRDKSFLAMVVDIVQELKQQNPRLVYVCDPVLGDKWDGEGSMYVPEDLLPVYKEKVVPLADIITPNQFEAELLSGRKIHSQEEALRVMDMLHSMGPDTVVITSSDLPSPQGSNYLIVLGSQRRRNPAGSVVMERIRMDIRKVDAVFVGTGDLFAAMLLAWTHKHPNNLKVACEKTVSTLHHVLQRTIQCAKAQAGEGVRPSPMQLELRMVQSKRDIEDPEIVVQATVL

[5] = molecular target: T3, Serine/threonine-protein kinase TAO2 (Homo sapiens, UniProt Q9UL54)
T3 sequence (Q9UL54 whole entry): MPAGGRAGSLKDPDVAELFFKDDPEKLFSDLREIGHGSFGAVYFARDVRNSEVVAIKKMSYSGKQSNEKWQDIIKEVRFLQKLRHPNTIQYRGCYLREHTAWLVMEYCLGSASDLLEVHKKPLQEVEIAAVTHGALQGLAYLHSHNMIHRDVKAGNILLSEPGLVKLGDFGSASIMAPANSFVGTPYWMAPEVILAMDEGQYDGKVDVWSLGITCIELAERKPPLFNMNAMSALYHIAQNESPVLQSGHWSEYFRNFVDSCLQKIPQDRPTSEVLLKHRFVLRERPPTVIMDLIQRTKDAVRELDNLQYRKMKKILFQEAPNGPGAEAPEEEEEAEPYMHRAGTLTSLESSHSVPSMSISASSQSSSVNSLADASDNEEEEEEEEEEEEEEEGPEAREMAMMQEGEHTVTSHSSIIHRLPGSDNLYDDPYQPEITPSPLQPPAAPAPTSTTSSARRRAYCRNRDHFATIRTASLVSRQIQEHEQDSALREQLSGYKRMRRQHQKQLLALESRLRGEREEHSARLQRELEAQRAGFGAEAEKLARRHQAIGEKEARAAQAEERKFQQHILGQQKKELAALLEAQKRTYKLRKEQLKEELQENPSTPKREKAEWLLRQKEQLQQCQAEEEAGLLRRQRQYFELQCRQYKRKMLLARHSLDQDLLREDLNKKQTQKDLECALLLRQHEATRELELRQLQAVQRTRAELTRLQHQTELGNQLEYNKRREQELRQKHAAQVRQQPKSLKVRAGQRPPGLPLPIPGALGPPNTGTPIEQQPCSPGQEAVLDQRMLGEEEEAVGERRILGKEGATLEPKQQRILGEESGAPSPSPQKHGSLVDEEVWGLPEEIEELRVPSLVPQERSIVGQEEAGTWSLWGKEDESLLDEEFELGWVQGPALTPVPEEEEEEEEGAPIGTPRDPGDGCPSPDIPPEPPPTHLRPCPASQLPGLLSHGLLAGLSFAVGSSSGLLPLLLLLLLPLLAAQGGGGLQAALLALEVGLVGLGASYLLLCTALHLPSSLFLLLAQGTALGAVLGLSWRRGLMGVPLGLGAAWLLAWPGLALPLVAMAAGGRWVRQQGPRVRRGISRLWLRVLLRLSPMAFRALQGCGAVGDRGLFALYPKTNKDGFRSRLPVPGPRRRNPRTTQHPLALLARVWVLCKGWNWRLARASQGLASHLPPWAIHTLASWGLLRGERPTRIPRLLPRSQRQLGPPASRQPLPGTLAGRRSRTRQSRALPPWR

[6] = molecular target: T4, Ras-related protein Rab-27A (Homo sapiens, UniProt P51159)
T4 sequence (P51159 whole entry): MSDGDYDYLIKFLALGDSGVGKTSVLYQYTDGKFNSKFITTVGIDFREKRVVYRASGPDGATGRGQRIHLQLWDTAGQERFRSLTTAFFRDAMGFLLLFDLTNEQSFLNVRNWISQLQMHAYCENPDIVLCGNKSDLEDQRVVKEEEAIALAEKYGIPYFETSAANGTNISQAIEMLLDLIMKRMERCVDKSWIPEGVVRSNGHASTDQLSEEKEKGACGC
Note: in the data inactive means no Kd found up to 30 µM.

Cn1c(=O)c(F)c(Nc2ccc(I)cc2F)c2c(=O)n(C[C@@H](O)CO)cnc21 [TAK-733]
Kd [1]: > 30 µM (inactive)
Kd [2]: > 30 µM (inactive)
Kd (LIM domain kinase 2): > 30 µM (inactive)
Kd [3]: > 30 µM (inactive)
Kd [4]: > 30 µM (inactive)
Kd (Pyridoxal kinase): > 30 µM (inactive)
Kd [5]: > 30 µM (inactive)

Cc1cc(C(=O)Nc2cc(Oc3ccc4nc(NC(=O)C5CC5)cn4n3)ccc2C)n(C)n1 [TAK-593]
Kd [1]: > 30 µM (inactive)
Kd (LIM domain kinase 2): > 30 µM (inactive)
Kd [3]: > 30 µM (inactive)
Kd (Pyridoxal kinase): > 30 µM (inactive)
Kd [5]: > 30 µM (inactive)

C[C@]1(O)C[C@@H](c2nc(-c3ccc4ccc(-c5ccccc5)nc4c3)c3c(N)nccn32)C1 [LINSITINIB]
Kd [1]: > 30 µM (inactive)
Kd (LIM domain kinase 2): > 30 µM (inactive)
Kd [4]: > 30 µM (inactive)
Kd (Pyridoxal kinase): > 30 µM (inactive)
Kd [6]: > 30 µM (inactive)

COc1cc2ncnc(Nc3ccc(O)cc3)c2cc1OC [WHI-P131]
Kd [1]: > 30 µM (inactive)
Kd [2]: > 30 µM (inactive)
Kd (LIM domain kinase 2): > 30 µM (inactive)
Kd [3]: > 30 µM (inactive)
Kd [4]: > 30 µM (inactive)
Kd (Pyridoxal kinase): > 30 µM (inactive)
Kd [5]: > 30 µM (inactive)

O=C(O)c1ccc2c(c1)nc(Nc1cccc(Cl)c1)c1ccncc12 [SILMITASERTIB]
Kd [1]: > 30 µM (inactive)
Kd [2]: > 30 µM (inactive)
Kd (LIM domain kinase 2): > 30 µM (inactive)
Kd [3]: > 30 µM (inactive)
Kd [4]: > 30 µM (inactive)
Kd (Pyridoxal kinase): > 30 µM (inactive)
Kd [5]: > 30 µM (inactive)

CN(c1ncccc1CNc1nc(Nc2ccc3c(c2)CC(=O)N3)ncc1C(F)(F)F)S(C)(=O)=O [PF-00562271]
Kd [1]: > 30 µM (inactive)
Kd (LIM domain kinase 2): > 30 µM (inactive)
Kd [4]: > 30 µM (inactive)
Kd (Pyridoxal kinase): > 30 µM (inactive)
Kd [6]: > 30 µM (inactive)
Kd [5]: > 30 µM (inactive)

O[C@H]1CC[C@H](Nc2ncc3nc(Nc4c(F)cc(F)cc4F)n([C@H]4CCOC4)c3n2)CC1 [TANZISERTIB]
Kd [1]: > 30 µM (inactive)
Kd [2]: > 30 µM (inactive)
Kd (LIM domain kinase 2): 1.84 µM (active)
Kd [4]: > 30 µM (inactive)
Kd (Pyridoxal kinase): > 30 µM (inactive)
Kd [6]: > 30 µM (inactive)
Kd [5]: > 30 µM (inactive)

Cn1c(=O)n(-c2ccc(C(C)(C)C#N)cc2)c2c3cc(-c4cnc5ccccc5c4)ccc3ncc21 [DACTOLISIB]
Kd [1]: > 30 µM (inactive)
Kd [2]: > 30 µM (inactive)
Kd (LIM domain kinase 2): > 30 µM (inactive)
Kd [4]: > 30 µM (inactive)
Kd (Pyridoxal kinase): > 30 µM (inactive)
Kd [6]: > 30 µM (inactive)
Kd [5]: > 30 µM (inactive)

Cn1cnc2c(F)c(Nc3ccc(Br)cc3Cl)c(C(=O)NOCCO)cc21 [SELUMETINIB]
Kd [1]: > 30 µM (inactive)
Kd [4]: > 30 µM (inactive)
Kd (Pyridoxal kinase): > 30 µM (inactive)
Kd [6]: > 30 µM (inactive)

O=S(=O)(c1cccc2cnccc12)N1CCCNCC1 [FASUDIL]
Kd [1]: > 30 µM (inactive)
Kd (LIM domain kinase 2): > 30 µM (inactive)
Kd [4]: > 30 µM (inactive)
Kd (Pyridoxal kinase): > 30 µM (inactive)
Kd [6]: > 30 µM (inactive)
Kd [5]: > 30 µM (inactive)

COc1cc2c(N3CCN(C(=O)Nc4ccc(OC(C)C)cc4)CC3)ncnc2cc1OCCCN1CCCCC1 [TANDUTINIB]
Kd [1]: > 30 µM (inactive)
Kd [4]: > 30 µM (inactive)
Kd (Pyridoxal kinase): > 30 µM (inactive)
Kd [6]: > 30 µM (inactive)

COc1cc2c(Oc3ccc4[nH]c(C)cc4c3F)ncnc2cc1OCCCN1CCCC1 [CEDIRANIB]
Kd [1]: > 30 µM (inactive)
Kd [4]: > 30 µM (inactive)
Kd (Pyridoxal kinase): > 30 µM (inactive)
Kd [6]: > 30 µM (inactive)

CC(C)(O)CC(=O)NCCn1ccc2ncnc(Nc3ccc(Oc4cccc(C(F)(F)F)c4)c(Cl)c3)c21 [TAK-285]
Kd [1]: > 30 µM (inactive)
Kd [2]: > 30 µM (inactive)
Kd (LIM domain kinase 2): > 30 µM (inactive)
Kd [3]: > 30 µM (inactive)
Kd [4]: > 30 µM (inactive)
Kd (Pyridoxal kinase): > 30 µM (inactive)
Kd [5]: > 30 µM (inactive)

C=CCn1c(=O)c2cnc(Nc3ccc(N4CCN(C)CC4)cc3)nc2n1-c1cccc(C(C)(C)O)n1 [ADAVOSERTIB]
Kd [1]: > 30 µM (inactive)
Kd [2]: > 30 µM (inactive)
Kd (LIM domain kinase 2): > 30 µM (inactive)
Kd [4]: > 30 µM (inactive)
Kd (Pyridoxal kinase): > 30 µM (inactive)
Kd [6]: > 30 µM (inactive)
Kd [5]: > 30 µM (inactive)

CC1(C)CNc2cc(NC(=O)c3cccnc3NCc3ccncc3)ccc21 [MOTESANIB]
Kd [1]: > 30 µM (inactive)
Kd [4]: > 30 µM (inactive)
Kd (Pyridoxal kinase): > 30 µM (inactive)
Kd [6]: > 30 µM (inactive)

CN(C)C/C=C/C(=O)Nc1cc2c(Nc3ccc(F)c(Cl)c3)ncnc2cc1O[C@H]1CCOC1 [AFATINIB]
Kd [1]: > 30 µM (inactive)
Kd [4]: > 30 µM (inactive)
Kd (Pyridoxal kinase): > 30 µM (inactive)
Kd [6]: > 30 µM (inactive)

Cc1c(Cn2c(C)nc3c(C(=O)O)cc(N4CCOCC4)cc32)cccc1C(F)(F)F [GSK-2636771]
Kd [1]: > 30 µM (inactive)
Kd [2]: > 30 µM (inactive)
Kd (LIM domain kinase 2): > 30 µM (inactive)
Kd [3]: > 30 µM (inactive)
Kd [4]: > 30 µM (inactive)
Kd (Pyridoxal kinase): > 30 µM (inactive)
Kd [5]: > 30 µM (inactive)

C[C@@]1(C(=O)Nc2ccc(F)nc2)CCCN1c1nc(Nc2cc(C3CC3)n[nH]2)c2cccn2n1 [BMS-754807]
Kd [1]: > 30 µM (inactive)
Kd [2]: > 30 µM (inactive)
Kd [4]: > 30 µM (inactive)
Kd (Pyridoxal kinase): > 30 µM (inactive)
Kd [6]: > 30 µM (inactive)

NC[C@@](O)(c1ccc(Cl)cc1)c1ccc(-c2cn[nH]c2)cc1 [AT-13148]
Kd [1]: > 30 µM (inactive)
Kd (LIM domain kinase 2): > 30 µM (inactive)
Kd [3]: > 30 µM (inactive)
Kd [4]: > 30 µM (inactive)
Kd (Pyridoxal kinase): > 30 µM (inactive)
Kd [6]: > 30 µM (inactive)
Kd [5]: > 30 µM (inactive)

N#CCNC(=O)c1ccc(-c2ccnc(Nc3ccc(N4CCOCC4)cc3)n2)cc1 [MOMELOTINIB]
Kd [1]: > 30 µM (inactive)
Kd [2]: > 30 µM (inactive)
Kd (LIM domain kinase 2): > 30 µM (inactive)
Kd [4]: > 30 µM (inactive)
Kd (Pyridoxal kinase): > 30 µM (inactive)
Kd [6]: > 30 µM (inactive)
Kd [5]: > 30 µM (inactive)

CCN(CCCOc1ccc2c(Nc3cc(CC(=O)Nc4cccc(F)c4)n[nH]3)ncnc2c1)CCOP(=O)(O)O [BARASERTIB]
Kd [1]: > 30 µM (inactive)
Kd [2]: > 30 µM (inactive)
Kd (LIM domain kinase 2): > 30 µM (inactive)
Kd [4]: > 30 µM (inactive)
Kd (Pyridoxal kinase): > 30 µM (inactive)
Kd [5]: > 30 µM (inactive)
